From US20040013717A1, “PEG-lipid containing formulations” (priority 2001, published 2004)

Experiment: Stability of cryodesiccated composition
Type: physicochemical
Conditions: room temperature
From the text: Once formulated, the micelles of the invention may be freeze-dried or lyophilized for long-term storage if desired. […] If the composition is freeze-dried, it may be packed in vials for subsequent reconstitution with a suitable aqueous solution, such as sterile water or sterile water containing a saccharide and/or other suitable excipients, just prior to use. For example, reconstitution may be by simply adding water for injection just prior to administration.

benzoporphyrin derivative monoacid ring A [verteporfin]
period over which potency was maintained: at least nine months
